A short description of series [1]: Pharmacokinetics in male Sprague Dawley rats. It counts as in vivo. The settings on record: rat, sc, mean, single subcutaneous administration of 200 nMol/kg, plasma. The protocol:
The pharmacokinetics of the exemplary analogs are evaluated following a single subcutaneous administration of […] to male Sprague Dawley rats. Blood samples are collected over 120 hours, and resulting individual plasma concentrations are used to calculate pharmacokinetic parameters. Peptide plasma (K3 EDTA) concentrations are determined using a qualified LC/MS method that measured the intact mass of the ANP polypeptide. Each peptide and an analog as an internal standard are extracted from 100% specie specified plasma using methanol with 0.1% formic acid. A Thermo Q-Exactive, High Resolution Instrument, and a Thermo Easy Spray PepMap are combined for LC/MS detection.

The test system of another series is plasma cGMP. In words: In vivo monkey studies, plasma cGMP ELISA. Also noted: species or system male cynomolgus monkeys. On the procedure:
In vivo monkey studies were conducted as described in detail below. Young adult-to-adult male cynomolgus monkeys were given a single dose subcutaneously (SC). Blood was collected predose and at various pre-determined timepoints throughout the study period. Aliquot of cynomolgus monkey plasma was received for cyclic cGMP (cGMP) measurement and stored at −80° C. prior to use.
Control plasma was made for determining the recovery rate of spike-in cGMP using Enzo cGMP complete ELISA kit (Enzo Life Sciences, Inc, Farmingdale, NY, cat no. ADI-901-164). Briefly, blood from male Sprague Dawley rats (Inotiv, Indianapolis, IN), about 7 months old, was collected in a BD Vacutainer EDTA tube (Becton Dickinson, Franklin Lakes, NJ, cat no. BD-367856) with volume of approximate 4 mL through retro orbital bleeding. Plasma was prepared by spinning the tube in an Eppendorf Refrigerated Centrifuge 5810R (Brinkman Instruments, Inc, Westbury, NY) at 3500 rpm (3000×g) for 10 min at 4° C. Plasma was collected as Positive Control plasma. Cyclic GMP (cGMP standard from Enzo cGMP complete ELISA kit) was added to the positive control plasma at a final concentration of additional 40 nM. Positive Control and Spiked-in Control plasma were aliquoted and stored at −80° C.
The cGMP content was measured using the Enzo cGMP complete ELISA kit following the manufacturer's directions with modifications as described below. The cGMP standards provided in the kit were diluted 1:3 ranging from 50 nM to 0.023 nM in 1× assay buffer that was diluted in water from 2× assay buffer provided in the kit. The cGMP standards ([…]) were transferred to a 96-well polypropylene plate (Thermo Scientific, cat no. 442587).
Plasma samples were thawed from −80° C. and diluted 1:20 in 1× assay buffer in the above plate with a final volume of 150 μL. Assay buffer was added (150 μL) for both a non-specific binding control (in the absence of cGMP antibody) and a maximum binding control (in the absence of competing cGMP) in duplicate wells. Positive Control and Spiked-in Control plasma were diluted 1:20 in 1× assay buffer with a final volume of 150 μL in duplicate wells of the above plate. All diluted plasma was mixed by pipetting up and down several times.
Acetylation reagent mix was prepared by adding 1-part of acetic anhydride into 2-parts of triethylamine provided in the kit and mixing well using Vortex (Scientific Industries, Inc, Bohemia, NY). All controls, standards, and plasma samples were acetylated by adding 15 μL of acetylation reagent mix into the plate, one column at a time, and shaking for 1 min on a Titer Plate Shaker (Lab-Line Instrument, Inc., Melrose Park, IL) at room temperature. The plate was shaken for an additional 1 min following the acetylation of the last column to ensure the reaction was completed.
Acetylated controls, standard and plasma samples were transferred (100 μL) to an ELISA plate (n=1). Then 50 μL of cGMP conjugate were added to each well followed by the addition of 50 μL cGMP antibody to each well except for two non-specific binding wells, in which 50 μL of 1× assay buffer were added. The plate was then sealed and shaken for 2 h at room temperature on the plate shaker. Following this incubation, the plate was washed five times using 200 μL of 1× wash buffer diluted in water from 5× wash buffer provided in the kit. Then, 200 μL of para-Nitrophenylphosphate (pNpp) were added to each well. The plate was sealed with a new plate sealer and shaken in dark for 1 h at room temperature on the plate shaker. Finally, 50 μL of stop solution were added to each well to stop the enzyme reaction. The plate was then read at 405 nm using SpectraMax Plus (Molecular Devices, San Jose, CA).
The mean absorbance at 405 nm (O.D. 405 nm) for the non-specific binding controls was subtracted from the O.D. 405 nm of all samples. The subtracted O.D. 405 nm of all samples were then normalized with the mean subtracted O.D. 405 nm of the maximum binding controls as B/B0%. […]
A general note: In an ELISA, binding on a coated surface is turned into a signal by an enzyme label.

Numbered stars: 1 amine (or outer) side, 2 acyl side, 3 side chain; on linkers, the order of the positions; unused ones are H or OH. Bridge positions count the residues as written; N and C are the ends. Square brackets hold non-standard residues; d marks the D form. * marks the point of attachment. C20 diacid = O=C(O)CCCCCCCCCCCCCCCCCCC(=O)*; γGlu = O=C(O)[C@H](CCC(=O)[*:2])N[*:1]; 4Pal = N[C@@H](Cc1ccncc1)C(=O)O

In the case of “{C20 diacid-γGlu}-EKEKEKGS[4Pal]RRSSCFGGRIGRIGHQSGLGCPSFRHGGPSSGAPPPS-NH2 (disulfide 14-30) [Example 29]”, the CL/F – broadly, clearance divided by bioavailability, as obtained after extravascular dosing – in series [1] was 0.545 mL/min/kg. For the same substance, the half-life in series [1] (read-out: t½ (converted)) is 12 h. Further, the “Net cGMP (nM) Change from Baseline 0.083 h” value in the series on plasma cGMP (dose 100 nmol/kg, 0.083 h postdose, monkey plasma) was found to be 2.13 nM. Also, the “Net cGMP (nM) Change from Baseline 0.25 h” value with plasma cGMP (dose 100 nmol/kg, 0.25 h postdose, monkey plasma) turned out to be 3.52 nM. In the series on plasma cGMP (dose 100 nmol/kg, 0.5 h postdose, monkey plasma), the “Net cGMP (nM) Change from Baseline 0.5 h” value was 9.03 nM. In the series on plasma cGMP (dose 100 nmol/kg, 1 h postdose, monkey plasma), the “Net cGMP (nM) Change from Baseline 1 h” value came out at 10.14 nM. Further, the “Net cGMP (nM) Change from Baseline 2 h” value in the series with plasma cGMP (dose 100 nmol/kg, 2 h postdose, monkey plasma) amounted to 15.28 nM. Further, the “Net cGMP (nM) Change from Baseline 4 h” value with plasma cGMP (dose 100 nmol/kg, 4 h postdose, monkey plasma) is listed as 17.75 nM. The “Net cGMP (nM) Change from Baseline 8 h” value in the series on plasma cGMP (dose 100 nmol/kg, 8 h postdose, monkey plasma) was 26.8 nM. Also, in the series with plasma cGMP (dose 100 nmol/kg, 12 h postdose, monkey plasma), the “Net cGMP (nM) Change from Baseline 12 h” value is 28.52 nM. Besides, the “Net cGMP (nM) Change from Baseline 24 h” value in the series with plasma cGMP (dose 100 nmol/kg, 24 h postdose, monkey plasma) was 31.75 nM. In addition, in the series with plasma cGMP (dose 100 nmol/kg, 36 h postdose, monkey plasma), the “Net cGMP (nM) Change from Baseline 36 h” value came to 32.52 nM. For the same substance, the “Net cGMP (nM) Change from Baseline 48 h” value with plasma cGMP (dose 100 nmol/kg, 48 h postdose, monkey plasma) is listed as 21.75 nM. Besides, the “Net cGMP (nM) Change from Baseline 72 h” value in the series on plasma cGMP (dose 100 nmol/kg, 72 h postdose, monkey plasma) was determined as 12.46 nM. Also, the “Net cGMP (nM) Change from Baseline 96 h” value with plasma cGMP (dose 100 nmol/kg, 96 h postdose, monkey plasma) was determined as 12.31 nM. In the series on plasma cGMP (dose 100 nmol/kg, 120 h postdose, monkey plasma), the “Net cGMP (nM) Change from Baseline 120 h” value stood at 8.52 nM. Besides, in the series with plasma cGMP (dose 100 nmol/kg, 144 h postdose, monkey plasma), the “Net cGMP (nM) Change from Baseline 144 h” value came to 8.28 nM. Moreover, the “Net cGMP (nM) Change from Baseline 168 h” value in the series with plasma cGMP (dose 100 nmol/kg, 168 h postdose, monkey plasma) turned out to be 4.1 nM. For the same substance, in the series on plasma cGMP (monkeys, single SC dose, plasma), the “net cGMP levels (result in words)” value is reported as “increased net cGMP levels”.

These data come from US20240174727A1, “LONG-ACTING NATRIURETIC PEPTIDES AND USES THEREOF” (Eli Lilly and Company, priority 2022, published 2024).
